Like-named read-outs stand apart in the source and are kept apart here.
System: mouse peritoneal macrophages
Test: In vitro experiment using mouse peritoneal macrophages: suppression of foaming, cholesterol ester (CE) yield
Format: cell-based
Conditions: for inhibitory effect on macrophages (rate of cholesterol ester synthesis), in words: mouse peritoneal macrophages, 5 μM
[1] = test compound 5 μM with liposomes, 16 hours, cholesterol ester yield relative to control without test compound = 100%, smaller value = more potent suppression

| Compound | CE yield (%) | CE yield (%) [1] [%] | inhibitory effect on macrophages (rate of cholesterol ester synthesis), in words |
| --- | --- | --- | --- |
| 1-(5-(benzimidazoyl-2-thio)pentyl)piperidine [Compound 1] | 22 | – | – |
| 1-(5-benzimidazolyl-2-thio)pentyl-1,2,3,4-tetrahydro-quinoline [Compound 34] | 21 | – | – |
| 2-(5-(4-morpholino))-5-chlorobenzimidazole [Compound 20] | – | 25 | – |
| 2-(5-(4-morpholino))-5-methoxybenzimidazole [Compound 19] | – | 24 | – |
| 2-(5-(4-morpholino))-5-methylbenzimidazole [Compound 9] | – | 21 | – |
| 2-(6-(1-(4-cyano-4-phenyl)piperidino)heptyl)-1H-benzimidazole [Compound 57] | 22 | – | – |
| 2-(6-(1-(4-hydroxy-4-phenyl)piperidino)heptyl)-1H-benzimidazole [Compound 58] | 20 | – | – |
| 4-(5-(benzimidazolyl-2-thio)pentyl)morpholine [Compound 2] | – | 18 | – |
| CCCn1c(SCCCCCN2CCOCC2)nc2ccccc21 [Compound 6, 4-(5-(1-propylbenzimidazolyl-2-thio)pentyl)morpholine] | – | 27 | – |
| CCC(=O)n1c(SCCCCCN2CCOCC2)nc2ccccc21 [Compound 7, 4-(5-(1-propionylbenzimidazolyl-2-thio)pentyl)morpholine] | – | 22 | – |
| O=C(CCCCSc1nc2ccccc2[nH]1)N1CCCc2ccccc21 [Compound 33, 1-(5-(4-benzimidazolyl-2-thio)valeryl)-1,2,3,4-tetrahydro-quinoline] | – | 18 | – |
| c1ccc2[nH]c(SCCOCCN3CCOCC3)nc2c1 [Compound 50, 4-(2-(2-benzimidazoyl-2-thio)ethoxy)ethylmorpholine] | – | 4.6 | – |
| N#CC1(c2ccccc2)CCN(CCCCCOc2nc3ccccc3[nH]2)CC1 [Compound 55, 1-(5-(benzimidazoyl-2-oxy)pentyl)-4-cyano-4-phenyl-piperidine] | 21 | – | – |
| CC(C)Oc1cccc(OC(C)C)c1NC(=O)CN1CCN(CCCSc2nc3ccccc3[nH]2)CC1 [Ref. 1, reference compound] | – | 95 | almost no inhibitory effect |
| CC(C)c1cc(C(C)C)c(NC(=O)CN2CCN(CCSc3nc4ccccc4[nH]3)CC2)c(C(C)C)c1 [Ref. 2, reference compound] | – | 98 | almost no inhibitory effect |
| CCCCCCN(CCCCCSc1nc2ccccc2[nH]1)C(=O)Nc1ccc(F)cc1F [Ref. 3, reference compound] | – | 78 | almost no inhibitory effect |
| O=C(CCN1CCCCC1)CSc1nc2ccccc2[nH]1 [Ref. 4, reference compound] | – | 89 | completely inactive |
| COc1ccc2[nH]c(SCCN3CCNCC3)nc2c1 [Ref. 5, reference compound] | – | 102 | completely inactive |
